# The supplement of paper PMC8671470
# Tested on: THP-1
# Experiment: cell viability (% survival relative to DMSO control, bortezomib = 0%); higher = less cytotoxic
# Conditions: 100 nM; 72 h
# In short: (§1)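 Percent survival is reported as the mean of duplicate wells. Cells from 10 AML and 5 CML lines were plated in 384-well plates containing compounds at 1, 10, 100, 1000 or 10000 nM and kept for 72 h at 37 °C in 5% CO2. Readout used CellTiter-Glo luminescence, scaled so that vehicle equals 100% and a 10 µM positive control equals 0%.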
row,SMILES,cell viability [%]
1,CC[C@@]1(O)C(=O)OCc2c1cc1n(c2=O)Cc2cc3c(CN(C)C)c(O)ccc3nc2-1 [Topotecan],78.5
2,CCC(=O)N1CCN(c2ccc(-n3c(=O)ccc4cnc5ccc(-c6cnc7ccccc7c6)cc5c43)cc2C(F)(F)F)CC1 [Torin1],96.9

# Same assay, conditions: 1000 nM; 72 h
row,SMILES,cell viability [%]
1,O[C@H]1[C@H]2[C@H](O)CCCN2C[C@H]1O [Swainsonine],97.8
2,Cc1coc2c1C(=O)C(=O)c1c-2ccc2c1CCCC2(C)C [Tanshinone IIA],92.4
3,Cc1cn([C@H]2C[C@H](O)[C@@H](COP(=O)(O)OP(=O)(O)O)O2)c(=O)[nH]c1=O [Thymidine diphosphate],95.7
4,CN(C)c1cc(NC(=O)CNC(C)(C)C)c(O)c2c1C[C@H]1C[C@H]3[C@H](N(C)C)C(=O)C(C(N)=O)C(=O)[C@@]3(O)C(=O)C1C2=O (stereo partly drawn) [Tigecycline],105
5,COc1ccc2c(C(=S)N(C)CC(=O)O)cccc2c1C(F)(F)F [Tolrestat],104
6,CC[C@@]1(O)C(=O)OCc2c1cc1n(c2=O)Cc2cc3c(CN(C)C)c(O)ccc3nc2-1 [Topotecan],30.4
7,CCC(=O)N1CCN(c2ccc(-n3c(=O)ccc4cnc5ccc(-c6cnc7ccccc7c6)cc5c43)cc2C(F)(F)F)CC1 [Torin1],58.9

# Same assay, conditions: 10000 nM; 72 h
row,SMILES,cell viability [%]
1,O[C@H]1[C@H]2[C@H](O)CCCN2C[C@H]1O [Swainsonine],101
2,Cc1coc2c1C(=O)C(=O)c1c-2ccc2c1CCCC2(C)C [Tanshinone IIA],62.5
3,Cc1cn([C@H]2C[C@H](O)[C@@H](COP(=O)(O)OP(=O)(O)O)O2)c(=O)[nH]c1=O [Thymidine diphosphate],99.3
4,CN(C)c1cc(NC(=O)CNC(C)(C)C)c(O)c2c1C[C@H]1C[C@H]3[C@H](N(C)C)C(=O)C(C(N)=O)C(=O)[C@@]3(O)C(=O)C1C2=O (stereo partly drawn) [Tigecycline],105
5,COc1ccc2c(C(=S)N(C)CC(=O)O)cccc2c1C(F)(F)F [Tolrestat],94.4
6,CC[C@@]1(O)C(=O)OCc2c1cc1n(c2=O)Cc2cc3c(CN(C)C)c(O)ccc3nc2-1 [Topotecan],13.6
7,CCC(=O)N1CCN(c2ccc(-n3c(=O)ccc4cnc5ccc(-c6cnc7ccccc7c6)cc5c43)cc2C(F)(F)F)CC1 [Torin1],33.9

# Tested on: SHI-1
# Experiment: as above
# Conditions: 1 nM; 72 h
# In short: as §1
row,SMILES,cell viability [%]
1,O[C@H]1[C@H]2[C@H](O)CCCN2C[C@H]1O [Swainsonine],93.8
2,Cc1coc2c1C(=O)C(=O)c1c-2ccc2c1CCCC2(C)C [Tanshinone IIA],106
3,Cc1cn([C@H]2C[C@H](O)[C@@H](COP(=O)(O)OP(=O)(O)O)O2)c(=O)[nH]c1=O [Thymidine diphosphate],96.2
4,CN(C)c1cc(NC(=O)CNC(C)(C)C)c(O)c2c1C[C@H]1C[C@H]3[C@H](N(C)C)C(=O)C(C(N)=O)C(=O)[C@@]3(O)C(=O)C1C2=O (stereo partly drawn) [Tigecycline],113
5,COc1ccc2c(C(=S)N(C)CC(=O)O)cccc2c1C(F)(F)F [Tolrestat],98.6
6,CC[C@@]1(O)C(=O)OCc2c1cc1n(c2=O)Cc2cc3c(CN(C)C)c(O)ccc3nc2-1 [Topotecan],97.1
7,CCC(=O)N1CCN(c2ccc(-n3c(=O)ccc4cnc5ccc(-c6cnc7ccccc7c6)cc5c43)cc2C(F)(F)F)CC1 [Torin1],89.8

# Same assay, conditions: 10 nM; 72 h
row,SMILES,cell viability [%]
1,O[C@H]1[C@H]2[C@H](O)CCCN2C[C@H]1O [Swainsonine],110
2,Cc1coc2c1C(=O)C(=O)c1c-2ccc2c1CCCC2(C)C [Tanshinone IIA],98.5
3,Cc1cn([C@H]2C[C@H](O)[C@@H](COP(=O)(O)OP(=O)(O)O)O2)c(=O)[nH]c1=O [Thymidine diphosphate],89.3
4,CN(C)c1cc(NC(=O)CNC(C)(C)C)c(O)c2c1C[C@H]1C[C@H]3[C@H](N(C)C)C(=O)C(C(N)=O)C(=O)[C@@]3(O)C(=O)C1C2=O (stereo partly drawn) [Tigecycline],97.9
5,COc1ccc2c(C(=S)N(C)CC(=O)O)cccc2c1C(F)(F)F [Tolrestat],104
6,CC[C@@]1(O)C(=O)OCc2c1cc1n(c2=O)Cc2cc3c(CN(C)C)c(O)ccc3nc2-1 [Topotecan],85.8
7,CCC(=O)N1CCN(c2ccc(-n3c(=O)ccc4cnc5ccc(-c6cnc7ccccc7c6)cc5c43)cc2C(F)(F)F)CC1 [Torin1],92

# Same assay, conditions: 100 nM; 72 h
row,SMILES,cell viability [%]
1,O[C@H]1[C@H]2[C@H](O)CCCN2C[C@H]1O [Swainsonine],109
2,Cc1coc2c1C(=O)C(=O)c1c-2ccc2c1CCCC2(C)C [Tanshinone IIA],98.8
3,Cc1cn([C@H]2C[C@H](O)[C@@H](COP(=O)(O)OP(=O)(O)O)O2)c(=O)[nH]c1=O [Thymidine diphosphate],110
4,CN(C)c1cc(NC(=O)CNC(C)(C)C)c(O)c2c1C[C@H]1C[C@H]3[C@H](N(C)C)C(=O)C(C(N)=O)C(=O)[C@@]3(O)C(=O)C1C2=O (stereo partly drawn) [Tigecycline],97.1
5,COc1ccc2c(C(=S)N(C)CC(=O)O)cccc2c1C(F)(F)F [Tolrestat],88.1
6,CC[C@@]1(O)C(=O)OCc2c1cc1n(c2=O)Cc2cc3c(CN(C)C)c(O)ccc3nc2-1 [Topotecan],0.99
7,CCC(=O)N1CCN(c2ccc(-n3c(=O)ccc4cnc5ccc(-c6cnc7ccccc7c6)cc5c43)cc2C(F)(F)F)CC1 [Torin1],80.2

# Same assay, conditions: 1000 nM; 72 h
row,SMILES,cell viability [%]
1,O[C@H]1[C@H]2[C@H](O)CCCN2C[C@H]1O [Swainsonine],108
2,Cc1coc2c1C(=O)C(=O)c1c-2ccc2c1CCCC2(C)C [Tanshinone IIA],107
3,Cc1cn([C@H]2C[C@H](O)[C@@H](COP(=O)(O)OP(=O)(O)O)O2)c(=O)[nH]c1=O [Thymidine diphosphate],91.8
4,CN(C)c1cc(NC(=O)CNC(C)(C)C)c(O)c2c1C[C@H]1C[C@H]3[C@H](N(C)C)C(=O)C(C(N)=O)C(=O)[C@@]3(O)C(=O)C1C2=O (stereo partly drawn) [Tigecycline],115
5,COc1ccc2c(C(=S)N(C)CC(=O)O)cccc2c1C(F)(F)F [Tolrestat],108
6,CC[C@@]1(O)C(=O)OCc2c1cc1n(c2=O)Cc2cc3c(CN(C)C)c(O)ccc3nc2-1 [Topotecan],-0.151
7,CCC(=O)N1CCN(c2ccc(-n3c(=O)ccc4cnc5ccc(-c6cnc7ccccc7c6)cc5c43)cc2C(F)(F)F)CC1 [Torin1],48.9

# Same assay, conditions: 10000 nM; 72 h
row,SMILES,cell viability [%]
1,O[C@H]1[C@H]2[C@H](O)CCCN2C[C@H]1O [Swainsonine],102
2,Cc1coc2c1C(=O)C(=O)c1c-2ccc2c1CCCC2(C)C [Tanshinone IIA],96.1
3,Cc1cn([C@H]2C[C@H](O)[C@@H](COP(=O)(O)OP(=O)(O)O)O2)c(=O)[nH]c1=O [Thymidine diphosphate],107
4,CN(C)c1cc(NC(=O)CNC(C)(C)C)c(O)c2c1C[C@H]1C[C@H]3[C@H](N(C)C)C(=O)C(C(N)=O)C(=O)[C@@]3(O)C(=O)C1C2=O (stereo partly drawn) [Tigecycline],93.4
5,COc1ccc2c(C(=S)N(C)CC(=O)O)cccc2c1C(F)(F)F [Tolrestat],101
6,CC[C@@]1(O)C(=O)OCc2c1cc1n(c2=O)Cc2cc3c(CN(C)C)c(O)ccc3nc2-1 [Topotecan],0.783
7,CCC(=O)N1CCN(c2ccc(-n3c(=O)ccc4cnc5ccc(-c6cnc7ccccc7c6)cc5c43)cc2C(F)(F)F)CC1 [Torin1],69.4

# Tested on: BV-173
# Experiment: as above
# Conditions: 1 nM; 72 h
# In short: as §1
row,SMILES,cell viability [%]
1,O[C@H]1[C@H]2[C@H](O)CCCN2C[C@H]1O [Swainsonine],98.1
2,Cc1coc2c1C(=O)C(=O)c1c-2ccc2c1CCCC2(C)C [Tanshinone IIA],91.9
3,Cc1cn([C@H]2C[C@H](O)[C@@H](COP(=O)(O)OP(=O)(O)O)O2)c(=O)[nH]c1=O [Thymidine diphosphate],92.3
4,CN(C)c1cc(NC(=O)CNC(C)(C)C)c(O)c2c1C[C@H]1C[C@H]3[C@H](N(C)C)C(=O)C(C(N)=O)C(=O)[C@@]3(O)C(=O)C1C2=O (stereo partly drawn) [Tigecycline],119
5,COc1ccc2c(C(=S)N(C)CC(=O)O)cccc2c1C(F)(F)F [Tolrestat],84.3
6,CC[C@@]1(O)C(=O)OCc2c1cc1n(c2=O)Cc2cc3c(CN(C)C)c(O)ccc3nc2-1 [Topotecan],100
7,CCC(=O)N1CCN(c2ccc(-n3c(=O)ccc4cnc5ccc(-c6cnc7ccccc7c6)cc5c43)cc2C(F)(F)F)CC1 [Torin1],111

# Same assay, conditions: 10 nM; 72 h
row,SMILES,cell viability [%]
1,O[C@H]1[C@H]2[C@H](O)CCCN2C[C@H]1O [Swainsonine],104
2,Cc1coc2c1C(=O)C(=O)c1c-2ccc2c1CCCC2(C)C [Tanshinone IIA],103
3,Cc1cn([C@H]2C[C@H](O)[C@@H](COP(=O)(O)OP(=O)(O)O)O2)c(=O)[nH]c1=O [Thymidine diphosphate],83.5
4,CN(C)c1cc(NC(=O)CNC(C)(C)C)c(O)c2c1C[C@H]1C[C@H]3[C@H](N(C)C)C(=O)C(C(N)=O)C(=O)[C@@]3(O)C(=O)C1C2=O (stereo partly drawn) [Tigecycline],107
5,COc1ccc2c(C(=S)N(C)CC(=O)O)cccc2c1C(F)(F)F [Tolrestat],108
6,CC[C@@]1(O)C(=O)OCc2c1cc1n(c2=O)Cc2cc3c(CN(C)C)c(O)ccc3nc2-1 [Topotecan],56.7
7,CCC(=O)N1CCN(c2ccc(-n3c(=O)ccc4cnc5ccc(-c6cnc7ccccc7c6)cc5c43)cc2C(F)(F)F)CC1 [Torin1],80.7

# Same assay, conditions: 100 nM; 72 h
row,SMILES,cell viability [%]
1,O[C@H]1[C@H]2[C@H](O)CCCN2C[C@H]1O [Swainsonine],98.3
2,Cc1coc2c1C(=O)C(=O)c1c-2ccc2c1CCCC2(C)C [Tanshinone IIA],105
3,Cc1cn([C@H]2C[C@H](O)[C@@H](COP(=O)(O)OP(=O)(O)O)O2)c(=O)[nH]c1=O [Thymidine diphosphate],98.2
4,CN(C)c1cc(NC(=O)CNC(C)(C)C)c(O)c2c1C[C@H]1C[C@H]3[C@H](N(C)C)C(=O)C(C(N)=O)C(=O)[C@@]3(O)C(=O)C1C2=O (stereo partly drawn) [Tigecycline],97.4
5,COc1ccc2c(C(=S)N(C)CC(=O)O)cccc2c1C(F)(F)F [Tolrestat],86.1
6,CC[C@@]1(O)C(=O)OCc2c1cc1n(c2=O)Cc2cc3c(CN(C)C)c(O)ccc3nc2-1 [Topotecan],-0.0236
7,CCC(=O)N1CCN(c2ccc(-n3c(=O)ccc4cnc5ccc(-c6cnc7ccccc7c6)cc5c43)cc2C(F)(F)F)CC1 [Torin1],89.1

# Same assay, conditions: 1000 nM; 72 h
row,SMILES,cell viability [%]
1,O[C@H]1[C@H]2[C@H](O)CCCN2C[C@H]1O [Swainsonine],90.8
2,Cc1coc2c1C(=O)C(=O)c1c-2ccc2c1CCCC2(C)C [Tanshinone IIA],97.3
3,Cc1cn([C@H]2C[C@H](O)[C@@H](COP(=O)(O)OP(=O)(O)O)O2)c(=O)[nH]c1=O [Thymidine diphosphate],78
4,CN(C)c1cc(NC(=O)CNC(C)(C)C)c(O)c2c1C[C@H]1C[C@H]3[C@H](N(C)C)C(=O)C(C(N)=O)C(=O)[C@@]3(O)C(=O)C1C2=O (stereo partly drawn) [Tigecycline],84
5,COc1ccc2c(C(=S)N(C)CC(=O)O)cccc2c1C(F)(F)F [Tolrestat],88.5
6,CC[C@@]1(O)C(=O)OCc2c1cc1n(c2=O)Cc2cc3c(CN(C)C)c(O)ccc3nc2-1 [Topotecan],0.0225
